For this experiment, the target named is Human immunodeficiency virus type 1 protease (Human immunodeficiency virus 1, UniProt Q72874, V82A). The experiment can be described thus: Tested for inhibitor binding of Val82Ala mutant of HIV PR. Set-up: species or system human immunodeficiency virus type1.

In ChEMBL document CHEMBL1148439, “A phenylnorstatine inhibitor binding to HIV-1 protease: geometry, protonation, and subsite-pocket interactions analyzed at atomic resolution” (J Med Chem, 2004) one finds Ki data, which are given here for one compound.

A word on the Ki: it is a measure of affinity in units of concentration, obtained from inhibition or displacement. A lower Ki goes with higher affinity. Compound `NC(=O)[C@H](CCC(=O)O)NC(=O)[C@H](CCC(=O)O)NC(=O)[C@H](Cc1ccccc1)NC(=O)[C@H](O)[C@H](Cc1ccccc1)NC(=O)OCc1ccccc1` had a Ki of 0.11 nM.
